Reference: patent publication US10940139B2, “Compounds that interact with the Ras superfamily for the treatment of cancers, inflammatory diseases, rasopathies, and fibrotic disease” (Shy Therapeutics LLC, priority 2017, dated 2021)

Experiments:
[1] = system: IL6 production in RAW 264.7 macrophage cell line; assay: Mouse IL6 quantification assay (LPS-stimulated macrophages, ELISA); format: cell-based; conditions: RAW264.7, RAW 264.7 murine leukemia virus transformed macrophage cell lines, LPS stimulation, read-out: IL-6 % Inhibition at 30 μM
[2] = system: TNFα production in RAW 264.7 macrophage cell line; assay: Mouse TNF alpha quantification assay (LPS-stimulated macrophages, ELISA); format: cell-based; conditions: RAW264.7, RAW 264.7 murine leukemia virus transformed macrophage cell lines, LPS stimulation, read-out: TNF-α % Inhibition at 30 μM

Structure (SMILES) | inhibition at 30 µM [1] [%] | inhibition at 30 µM [2] [%]
Cc1ccc(CC(=O)Nc2nnc(-c3ccccn3)[nH]2)cc1 [drawing 1943] | 1 to 25 | 0
Cn1cc(-c2nc(C(=O)Nc3nnc(-c4ccccn4)[nH]3)cs2)cn1 [drawing 1944] | 51 to 75 | 1 to 25
Cn1ccc(C(=O)Nc2nnc(-c3ccccn3)[nH]2)cc1=O [drawing 1945] | 0 | 1 to 25
Cc1c(C(=O)Nc2nnc(-c3ccccn3)[nH]2)oc2c1C(=O)CCC2 [drawing 1946] | 1 to 25 | 0
C[C@H](NS(=O)(=O)c1ccccc1F)C(=O)Nc1nnc(-c2ccccn2)[nH]1 [drawing 1947] | 51 to 75 | 1 to 25
CC(OCC(F)(F)F)C(=O)Nc1nnc(-c2ccccn2)[nH]1 (centres unmarked) [drawing 1948] | 0 | 1 to 25
CC(C)c1nc(CC(=O)Nc2nnc(-c3ccccn3)[nH]2)cs1 [drawing 1949] | 1 to 25 | 0
O=C(Nc1nnc(-c2ccccn2)[nH]1)c1ccc(CN2C(=O)CCC2=O)cc1 [drawing 1950] | 0 | 1 to 25
CC(C)c1noc(CCCC(=O)Nc2nnc(-c3ccccn3)[nH]2)n1 [drawing 1951] | 0 | 1 to 25
CC(C)c1noc(CCC(=O)Nc2nnc(-c3ccccn3)[nH]2)n1 [drawing 1952] | 1 to 25 | 0
O=C(Cc1cccs1)Nc1nnc(-c2ccccn2)[nH]1 [drawing 1953] | 1 to 25 | 1 to 25
N#Cc1ccccc1OCC(=O)Nc1nnc(-c2ccccn2)[nH]1 [drawing 1954] | 1 to 25 | 0
O=C(Nc1nnc(-c2ccccn2)[nH]1)C1COc2ccccc2C1 (centres unmarked) [drawing 1955] | 26 to 50 | 1 to 25
O=C(Nc1nnc(-c2ccccn2)[nH]1)c1ccc(Oc2ccccc2)nc1 [drawing 1956] | 26 to 50 | 1 to 25
Cc1noc(C)c1CC(=O)Nc1nnc(-c2ccccn2)[nH]1 [drawing 1957] | 1 to 25 | 0
O=C(Nc1nnc(-c2ccccn2)[nH]1)C1CC(=O)N(CCc2ccccc2)C1 (centres unmarked) [drawing 1958] | 1 to 25 | 0
CN(CC(=O)Nc1nnc(-c2ccccn2)[nH]1)S(C)(=O)=O [drawing 1959] | 0 | 1 to 25
O=C(Cc1cccc(F)c1)Nc1nnc(-c2ccccn2)[nH]1 [drawing 1960] | 1 to 25 | 0
O=C(Nc1nnc(-c2ccccn2)[nH]1)c1cccc(NC(=O)C2CCCO2)c1 (centres unmarked) [drawing 1961] | 1 to 25 | 0
O=C(CC1CCCC1)NCC(=O)Nc1nnc(-c2ccccn2)[nH]1 [drawing 1962] | 1 to 25 | 1 to 25
O=C(Nc1nnc(-c2ccccn2)[nH]1)c1ncoc1-c1cccs1 [drawing 1963] | 26 to 50 | 1 to 25
O=C(Nc1nnc(-c2ccccn2)[nH]1)c1nc(N2CCOCC2)ncc1Cl [drawing 1964] | 1 to 25 | 0
O=C(Nc1nnc(-c2ccccn2)[nH]1)C1Cc2ccccc2O1 (centres unmarked) [drawing 1965] | 1 to 25 | 0
CC(Oc1ccccc1C#N)C(=O)Nc1nnc(-c2ccccn2)[nH]1 (centres unmarked) [drawing 1966] | 0 | 1 to 25
CC(Oc1cccc(C#N)c1)C(=O)Nc1nnc(-c2ccccn2)[nH]1 (centres unmarked) [drawing 1967] | 1 to 25 | 0

Structure (SMILES) | inhibition at 30 µM [1] [%] | inhibition at 30 µM [2] [%]
CC(Oc1ccc(C(=O)Nc2nnc(-c3ccccn3)[nH]2)cn1)c1ccccc1 (centres unmarked) [drawing 1968] | 1 to 25 | 0
O=C(Nc1nnc(-c2ccccn2)[nH]1)C1CCCN(c2ncccn2)C1 (centres unmarked) [drawing 1969] | 0 | 1 to 25
O=C(Cc1ccc(F)cc1)Nc1nnc(-c2ccccn2)[nH]1 [drawing 1970] | 1 to 25 | 1 to 25
CC(OCc1ccccc1)C(=O)Nc1nnc(-c2ccccn2)[nH]1 (centres unmarked) [drawing 1971] | 1 to 25 | 0
O=C(Nc1nnc(-c2ccccn2)[nH]1)C1CCCC(C(F)(F)F)C1 (centres unmarked) [drawing 1972] | 1 to 25 | 0
O=C(COCc1ccccc1Cl)Nc1nnc(-c2ccccn2)[nH]1 [drawing 1973] | 26 to 50 | 1 to 25
O=C(Nc1nnc(-c2ccccn2)[nH]1)C1CC1c1ccc(F)cc1 (centres unmarked) [drawing 1974] | 1 to 25 | 1 to 25
Cc1ccc(CC(=O)Nc2nnc(-c3ccccn3)[nH]2)s1 [drawing 1975] | 1 to 25 | 0
Cc1cccc(C(=O)Nc2nnc(-c3ccccn3)[nH]2)n1 [drawing 1976] | 1 to 25 | 0
CC(Oc1ccc(C#N)cc1)C(=O)Nc1nnc(-c2ccccn2)[nH]1 (centres unmarked) [drawing 1977] | 1 to 25 | 1 to 25
O=C(COc1ccc2c(c1)CCC2)Nc1nnc(-c2ccccn2)[nH]1 [drawing 1978] | 1 to 25 | 0
O=C(Nc1nnc(-c2ccccn2)[nH]1)C1CCCN(c2cnccn2)C1 (centres unmarked) [drawing 1979] | 1 to 25 | 1 to 25
O=C(Nc1nnc(-c2ccccn2)[nH]1)c1ccc(NC(=O)c2ccccn2)cc1 [drawing 1980] | 0 | 1 to 25
COC(=O)c1cncc(C(=O)Nc2nnc(-c3ccccn3)[nH]2)c1 [drawing 1981] | 1 to 25 | 1 to 25
CCc1ccccc1OCC(=O)Nc1nnc(-c2ccccn2)[nH]1 [drawing 1982] | 26 to 50 | 0
Cc1nc(-c2ccccn2)sc1C(=O)Nc1nnc(-c2ccccn2)[nH]1 [drawing 1983] | 1 to 25 | 0
Cc1nc2nc(C(F)(F)F)nn2c(C)c1CC(=O)Nc1nnc(-c2ccccn2)[nH]1 [drawing 1984] | 0 | 1 to 25
COc1cccc(COCC(=O)Nc2nnc(-c3ccccn3)[nH]2)c1 [drawing 1985] | 26 to 50 | 1 to 25
COc1ccccc1C1CC1C(=O)Nc1nnc(-c2ccccn2)[nH]1 (centres unmarked) [drawing 1986] | 26 to 50 | 1 to 25
O=C(Cn1c(=O)[nH]c2ccccc21)Nc1nnc(-c2ccccn2)[nH]1 [drawing 1987] | 1 to 25 | 1 to 25
CN(CC(=O)Nc1nnc(-c2ccccn2)[nH]1)Cc1ccccc1 [drawing 1988] | 26 to 50 | 1 to 25
O=C(Nc1nnc(-c2ccccn2)[nH]1)c1cccc(N2CCCS2(=O)=O)c1 [drawing 1989] | 1 to 25 | 1 to 25
CC(C)C(=O)Nc1nc(CC(=O)Nc2nnc(-c3ccccn3)[nH]2)cs1 [drawing 1990] | 0 | 1 to 25
CC(C)(C)c1nc(C(=O)Nc2nnc(-c3ccccn3)[nH]2)cs1 [drawing 1991] | 1 to 25 | 0
